Experimental data as given in patent US10961510B2, “Exosome active formulation for promoting endothelial cell angiogenesis, and preparation method and application” (INSTITUTE OF MICROCIRCULATION of the CHINESE ACADEMY OF …, priority 2018, dated 2021).

Test system: human umbilical vein endothelial cells (HUVECs)
Assay: Angiogenesis (tube formation) ability of HUVECs on BME-coated 96-well plate, total branching length by Image J
Assay type: cell-based
Settings: 10 ng/mL TNF-α alone, 18 hours intervention, compared with the Con group, P=0.002
Description: The angiogenesis ability of human umbilical vein endothelial cells (HUVECs) was detected by using a 96-well plate coated with a basement membrane extract (BME). 50 μL of a BME solution was added in each well, which was placed in a cell incubator at 37° C. for 30 minutes to form a jelly substance. 10000 endothelial cells were inoculated in each well, and the volume of the endothelial cell culture medium was 100 μL. […]
According to the real-time observation for the angiogenesis morphology, when each of the above groups was subjected to intervention treatment for 18 hours, the angiogenesis morphology of each group reached a status for the optimum observation and quantitation. […]

TNF-α
endothelial cell angiogenesis (total branching length of each view field): significantly inhibit endothelial cell angiogenesis
